Key:
[1] = tested on: Human colorectal adenocarcinoma HT-29 cells; experiment: MTT assay; type: cell-based; details: 72 hr
Procedure: (§1) Human Bladder Cancer TSGH cells, Human hepatoblastoma HepG2 cells, Human colorectal adenocarcinoma HT-29 cells, human nasopharyngeal carcinoma KB cells, Human gastric adenocarcinoma AGS cells, Human breast carcinoma MCF-7 cells, lung carcinoma A549 cells, and Human prostate carcinoma PC-3 cells were used in the preliminary cytotoxicity assays of the benzenesulfonamide derivatives of the present invention, and the inhibition activity against the tumor cells was evaluated.
(§2) All cell lines were maintained in RPMI 1640 supplied with 10% fetal bovine serum and maintained in a humidified chamber at 37° C. containing 5% CO2. Then, all cell lines were treated with compounds for 72 hr and subsequently incubated with 0.4 mg/mL of MTT at 37° C. for 2 hr. The medium was removed, and DMSO was added to dissolve MTT precipitate. Cell proliferation was determined by measuring the optical density at 540 nm using a Thermomax microplate reader (Molecular Devices, Sunnyvale, Calif.), and the IC50 values of the benzenesulfonamide derivatives of the present invention were calculated.

[2] = tested on: human nasopharyngeal carcinoma KB cells; experiment: MTT assay; type: cell-based; details: Homo sapiens, MTT assay; for IC50: KB, 72 hr; for inhibition at 20 µM: KB cells, read-out: Percentage of tumor cells inhibited by 20 μM
Procedure: as §1, §2

[3] = tested on: Human hepatoblastoma HepG2 cells; experiment: MTT assay; type: cell-based; details: 72 hr, read-out: IC50 HepaG2
Procedure: as §1, §2

[4] = tested on: Human Bladder Cancer TSGH cells; experiment: MTT assay; type: cell-based; details: 72 hr
Procedure: as §1, §2

Structure (SMILES)	melting point	IC50 [1]	IC50 [2]	inhibition at 20 µM [2]	IC50 [3]	IC50 [4]
Cc1ccc(C)c2c1[nH]c1c(NS(=O)(=O)c3ccccc3)cccc12 [Compound 6a, N-(5,8-Dimethyl-9H-carbazol-1-yl)benzenesulfonamide]	237 to 238 °C	141 µM	> 20 µM	32%	66.7 µM	160 µM
O=S(=O)(Nc1cccc2cc[nH]c12)c1ccccc1 [Compound 5a, N-(1H-Indol-7-yl)benzenesulfonamide]	178 to 179 °C	51.9 µM	> 20 µM	30%	44.7 µM	7.5 µM
O=[N+]([O-])c1ccccc1S(=O)(=O)Nc1cccc2cc[nH]c12 [Compound 5h, N-(1H-Indol-7-yl)-2-nitrobenzenesulfonamide]	187 to 188 °C	126 µM	> 20 µM	13%	87.8 µM	125 µM
COc1ccc(NC(=O)Nc2cccc3c2[nH]c2c(C)ccc(C)c23)cc1 [Compound 14b, 1-(5,8-Dimethyl-9H-carbazol-1-yl)-3-(4-methoxyphenyl)urea]	262 to 263 °C					
NS(=O)(=O)c1ccc(S(=O)(=O)Nc2cccc3cc[nH]c23)cc1 [Compound 5g, N-(1H-Indol-7-yl)-4-sulfamoylbenzenesulfonamide]	215 to 216 °C	65.9 µM	> 20 µM	12%	39.2 µM	37.5 µM
Cc1ccc(S(=O)(=O)Nc2cccc3c(/N=N/c4ccccc4)c[nH]c23)cc1 [Compound 7b, 4-Methyl-N-(3-phenylazo-1H-indol-7-yl)benzenesulfonamide]	212 to 213 °C	17.9 µM	> 20 µM	35%	30.8 µM	16 µM
Cc1ccc(C)c2c1[nH]c1c(NS(=O)(=O)c3ccc(S(N)(=O)=O)cc3)cccc12 [Compound 6g, N-(5,8-Dimethyl-9H-carbazol-1-yl)-4-sulfamoylbenzenesulfonamide]	290 to 291 °C	124 µM	19.1 µM		139 µM	80.7 µM
Cc1ccc(C)c2c1[nH]c1c(NS(=O)(=O)c3ccccc3[N+](=O)[O-])cccc12 [Compound 6h, N-(5,8-Dimethyl-9H-carbazol-1-yl)-2-nitrobenzenesulfonamide]	202 to 203 °C	17 µM	> 20 µM	24%	21 µM	37.2 µM
Cc1ccc(C)c2c1[nH]c1c(NC(=O)Nc3ccccc3)cccc12 [Compound 14a, 1-(5,8-Dimethyl-9H-carbazol-1-yl)-3-phenylurea]	300 to 301 °C					
COc1ccc(S(=O)(=O)Nc2cccc3cc[nH]c23)cc1 [Compound 5c, N-(1H-Indol-7-yl)-4-methoxybenzenesulfonamide]	161 to 162 °C	1.7 µM	3.4 µM		1.9 µM	2.4 µM
O=[N+]([O-])c1ccc(S(=O)(=O)Nc2cccc3cc[nH]c23)cc1 [Compound 5e, N-(1H-Indol-7-yl)-4-nitrobenzenesulfonamide]	185 to 186 °C	113 µM	> 20 µM	14%	46.9 µM	95.6 µM
Cc1ccc(C)c2c1[nH]c1c(NS(=O)(=O)c3ccc(Cl)cc3)cccc12 [Compound 6d, 4-Chloro-N-(5,8-dimethyl-9H-carbazol-1-yl)benzenesulfonamide]	217 to 218 °C	81.6 µM	> 20 µM	46%	34.4 µM	90 µM
Cc1ccc(C)c2c1[nH]c1c(NS(=O)(=O)c3ccc(N)cc3)cccc12 [Compound 6f, 4-Amino-N-(5,8-dimethyl-9H-carbazol-1-yl)benzenesulfonamide]	254 to 255 °C	18.7 µM	> 20 µM	34%	16.6 µM	39 µM
Cc1ccc(C)c2c1[nH]c1c(NS(=O)(=O)c3cc(Cl)c(Oc4ccc([N+](=O)[O-])cc4Cl)c(Cl)c3)cccc12 [Compound 61, 3,5-Dichloro-4-(2-chloro-4-nitrophenoxy)-N-(5,8-dimethyl-9H-carbazol-1-yl)benzenesulfonamide]	249 °C					
COc1cc(S(=O)(=O)Nc2cccc3c2[nH]c2c(C)ccc(C)c23)cc(OC)c1OC [Compound 6i, N-(5,8-Dimethyl-9H-carbazol-1-yl)-3,4,5-trimethoxybenzenesulfonamide]	205 to 207 °C					
Cc1ccc(S(=O)(=O)Nc2cccc3cc[nH]c23)cc1 [Compound 5b, N-(1H-Indol-7-yl)-4-methylbenzenesulfonamide]	159 to 160 °C	7.9 µM	> 20 µM	39%	7.9 µM	9.4 µM
Cc1ccc(S(=O)(=O)Nc2cccc3c2[nH]c2c(C)ccc(C)c23)cc1 [Compound 6b, N-(5,8-Dimethyl-9H-carbazol-1-yl)-4-methylbenzenesulfonamide]	185 to 186 °C	1.1 µM	2.5 µM		1.7 µM	2.1 µM
Cc1ccc(C)c2c1[nH]c1c(NS(=O)(=O)c3ccc([N+](=O)[O-])cc3)cccc12 [Compound 6e, N-(5,8-Dimethyl-9H-carbazol-1-yl)-4-nitrobenzenesulfonamide]	202 to 203 °C	17.6 µM	> 20 µM	9%	19.8 µM	40.6 µM
O=S(=O)(Nc1cccc2cc[nH]c12)c1ccc(Cl)cc1 [Compound 5d, 4-Chloro-N-(1H-indol-7-yl)benzenesulfonamide]	163 to 164 °C	19.8 µM	20 µM		14 µM	35.6 µM
